Test results as given in publication PMC11562494 (BMC Chemistry, 2024).
Values after ≈ are worked out from the molar mass of the structure shown. Values joined by “and” are separate entries in the source; they are usually repeats but may differ in a detail not shown here. Equal values may be shown once. Read-outs that look alike come from different tables or passages of the source.

Columns and labels:
B. pumilus = assay: Broth dilution MIC/MBC; type: cell-based, Bacillus pumilus; conditions: for MBC / MIC: Bacillus pumilus; for MBC: read-out: MBC B. pumilus; for MIC: read-out: MIC B. pumilus
S. faecalis = assay: Broth dilution MIC/MBC; type: cell-based, Streptococcus faecalis; conditions: for MBC / MIC: Enterococcus faecalis; for MBC: read-out: MBC S. faecalis; for MIC: read-out: MIC S. faecalis
E. coli [1] = assay: Broth dilution MIC/MBC; type: cell-based, Escherichia coli; conditions: for MBC / MIC: Escherichia coli; for MBC: read-out: MBC E. coli; for MIC: read-out: MIC E. coli
E. cloacae = assay: Broth dilution MIC/MBC; type: cell-based, Enterobacter cloacae; conditions: for MBC / MIC: Enterobacter cloacae; for MBC: read-out: MBC E. cloacae; for MIC: read-out: MIC E. cloacae
S. cerevisiae = assay: Broth dilution MIC/MFC; type: cell-based, Saccharomyces cerevisiae; conditions: for MFC / MIC: Saccharomyces cerevisiae; for MFC: read-out: MFC S. cerevisiae; for MIC: read-out: MIC S. cerevisiae
C. albicans [2] = assay: Broth dilution MIC/MFC; type: cell-based, Candida albicans; conditions: for MFC / MIC: Candida albicans; for MFC: read-out: MFC C. albicans; for MIC: read-out: MIC C. albicans, broth dilution
DNA gyrase A = DNA gyrase A (Escherichia coli, UniProt P0AES4); assay: DNA gyrase supercoiling assay; type: biochemical; conditions: IC50 ± SD DNA gyrase A, E. coli DNA gyrase supercoiling
E. coli [3] = assay: Time-kill kinetic test; type: cell-based; conditions: 1x MIC
WI38 cells [4] = assay: In vitro cytotoxicity MTT assay; conditions: Homo sapiens, WI-38, 48 h, read-out: WI-38 IC50 ± SD
B. subtilis = conditions: cited from earlier work
S. aureus [5] = conditions: cited from earlier work
WI38 cells [6] = conditions: read-out: WI-38 IC50 ± SD; normal WI38 cells, MTT; cited from earlier work
S. aureus [7] = conditions: cited from earlier work; remark: listed apart in the source
E. coli [8] = conditions: cited from earlier work
C. albicans [9] = conditions: cited from earlier work
[10] = test system: methicillin-resistant S. aureus; conditions: cited from earlier work
Escherichia coli = conditions: cited from earlier work
Pseudomonas aeruginosa = conditions: cited from earlier work
Aspergillus fumigatus = conditions: cited from earlier work

MBC/ MIC ratio B. pumilus (B. pumilus)	MIC (B. pumilus)	MBC/ MIC ratio S. faecalis (S. faecalis)	MIC (S. faecalis)	MBC/ MIC ratio E. coli (E. coli [1])	MIC (E. coli [1])	MBC/ MIC ratio E. cloacae (E. cloacae)	MIC (E. cloacae)	MFC/ MIC ratio S. cerevisiae (S. cerevisiae)	MIC (S. cerevisiae)	Compound	MBC (B. pumilus)	MBC (S. faecalis)	MBC (E. coli [1])	MBC (E. cloacae)	MFC (S. cerevisiae)	MFC (C. albicans [2])	also measured
2	62.5 µg/mL	2	31.3 µg/mL	4	3.91 µg/mL	4	15.6 µg/mL	2	62.5 µg/mL	CC(=O)Oc1ccc(-c2c(C(N)=O)c(N)n(N)c(=O)c2C#N)cc1 [Compound 3e, 4-(1,6-diamino-5-carbamoyl-3-cyano-2-oxo-1,2-dihydropyridin-4-yl)phenyl acetate]	125 µg/mL	62.5 µg/mL	15.6 µg/mL	62.5 µg/mL	125 µg/mL	125 µg/mL	MFC/ MIC ratio C. albicans (C. albicans [2]): 2; MIC (C. albicans [2]): 62.5 µg/mL; IC50 (DNA gyrase A): 11.5 µM; Time to bactericidal activity against E. coli (E. coli [3]): 90 to 120 min and 120 min; IC50 (WI38 cells [4]): 43.2 ± 1.7 µM
4	15.6 µg/mL (≈ 41.6 µM)	4	15.6 µg/mL (≈ 41.6 µM)	4	3.91 µg/mL (≈ 10.4 µM)	4	7.81 µg/mL (≈ 20.8 µM)	2	31.3 µg/mL (≈ 83.4 µM)	N#Cc1c(-c2ccc(OCc3ccccc3)cc2)c(C(N)=O)c(N)n(N)c1=O [Compound 3d, 1,2-diamino-4-(4-(benzyloxy)phenyl)-5-cyano-6-oxo-1,6-dihydropyridine-3-carboxamide]	62.5 µg/mL (≈ 166 µM)	62.5 µg/mL (≈ 166 µM)	15.6 µg/mL (≈ 41.6 µM)	31.3 µg/mL (≈ 83.4 µM)	62.5 µg/mL (≈ 166 µM)	500 µg/mL (≈ 1330 µM)	MFC/ MIC ratio C. albicans (C. albicans [2]): 4; IC50 (DNA gyrase A): 4.48 µM and 4.49 µM; Time to bactericidal activity against E. coli (E. coli [3]): 90 to 120 min and 90 min; IC50 (WI38 cells [4]): 48.8 ± 2.07 µM
–	–	–	–	–	–	–	–	–	–	gentamycin [reference compound]	–	–	–	–	–	–	Time to bactericidal activity against E. coli (E. coli [3]): 90 to 120 min and 120 min
–	–	–	–	–	–	–	–	–	–	N[C@@H](C(=O)N[C@@H]1C(=O)N2C(C(=O)O)=C(Cl)CS[C@H]12)c1ccccc1 [cefaclor]	–	–	–	–	–	–	MIC B. subtilis (B. subtilis): 2.4 µg/mL (≈ 6.53 µM); MIC S. aureus (S. aureus [5]): 2.4 µg/mL (≈ 6.53 µM)
–	–	–	–	–	–	–	–	–	–	O=C(O)c1cn(C2CC2)c2cc(N3CCNCC3)c(F)cc2c1=O [Cipro., ciprofloxacin]	–	–	–	–	–	–	IC50 (WI38 cells [6]): 23.9 ± 1.58 µM; IZ S. aureus (S. aureus [7]): 22 mm
–	–	–	–	–	–	–	–	–	–	CC1(C)S[C@@H]2[C@H](NC(=O)[C@H](N)c3ccc(O)cc3)C(=O)N2[C@H]1C(=O)O [amoxicillin]	–	–	–	–	–	–	MIC E. coli (E. coli [8]): 0.01 µM (≈ 3.65 ng/mL)
–	–	–	–	–	–	–	–	–	–	C[C@@H]1[C@H](O)[C@@H](C)/C=C/C=C/CC/C=C/C=C/C=C/C=C/C(O[C@H]2O[C@H](C)[C@@H](O)[C@H](N)[C@@H]2O)CC2O[C@](O)(CC(O)C(O)CCC(O)CC(O)CC(O)CC(=O)O[C@H]1C)CC(O)C2C(=O)O (stereo partly drawn) [nystatin]	–	–	–	–	–	–	MIC C. albicans (C. albicans [9]): 1.95 µg/mL (≈ 2.11 µM)
–	–	–	–	–	–	–	–	–	–	CN[C@H](CC(C)C)C(=O)N[C@H]1C(=O)N[C@@H](CC(N)=O)C(=O)N[C@H]2C(=O)N[C@H]3C(=O)N[C@H](C(=O)N[C@H](C(=O)O)c4cc(O)cc(O)c4-c4cc3ccc4O)[C@H](O)c3ccc(c(Cl)c3)Oc3cc2cc(c3O[C@@H]2O[C@H](CO)[C@@H](O)[C@H](O)[C@H]2O[C@H]2C[C@](C)(N)[C@H](O)[C@H](C)O2)Oc2ccc(cc2Cl)[C@H]1O [vancomycin]	–	–	–	–	–	–	MIC methicillin-resistant S. aureus [10]: 1 µg/mL (≈ 0.69 µM)
–	–	–	–	–	–	–	–	–	–	[H]/N=C(/N)N[C@H]1[C@H](O)[C@@H](O)[C@H](O[C@@H]2O[C@@H](C)[C@](O)(C=O)[C@H]2O[C@@H]2O[C@@H](CO)[C@H](O)[C@@H](O)[C@@H]2NC)[C@@H](N/C(N)=N\[H])[C@@H]1O [streptomycin]	–	–	–	–	–	–	IZ E. coli (Escherichia coli): 25 mm; IZ Pseudomonas aeruginosa (Pseudomonas aeruginosa): 24 mm
–	–	–	–	–	–	–	–	–	–	CC1COc2c(N3CCN(C)CC3)c(F)cc3c(=O)c(C(=O)O)cn1c23 (stereo not drawn) [ofloxacin]	–	–	–	–	–	–	IZ E. coli (Escherichia coli): 24 mm
–	–	–	–	–	–	–	–	–	–	C[C@@H]1[C@H](O)[C@@H](C)/C=C/C=C/C=C/C=C/C=C/C=C/C=C/[C@H](O[C@@H]2O[C@H](C)[C@@H](O)[C@H](N)[C@@H]2O)C[C@@H]2O[C@](O)(C[C@@H](O)C[C@@H](O)[C@H](O)CC[C@@H](O)C[C@@H](O)CC(=O)O[C@H]1C)C[C@H](O)[C@H]2C(=O)O [amphotericin B]	–	–	–	–	–	–	MIC C. albicans (C. albicans [9]): 1.95 µg/mL (≈ 2.11 µM); MIC Aspergillus fumigatus (Aspergillus fumigatus): 1.95 µg/mL (≈ 2.11 µM)
4	7.81 µg/mL (≈ 20 µM)	2	31.3 µg/mL (≈ 80 µM)	4	7.81 µg/mL (≈ 20 µM)	2	62.5 µg/mL (≈ 160 µM)	2	31.3 µg/mL (≈ 80 µM)	N#Cc1c(-c2ccc(OCc3ccccc3)cc2)c(C(N)=S)c(N)n(N)c1=O [Compound 4d, 1,2-diamino-4-(4-(benzyloxy)phenyl)-5-cyano-6-oxo-1,6-dihydropyridine-3-carbothioamide]	31.3 µg/mL (≈ 80 µM)	62.5 µg/mL (≈ 160 µM)	31.3 µg/mL (≈ 80 µM)	125 µg/mL (≈ 319 µM)	62.5 µg/mL (≈ 160 µM)	125 µg/mL (≈ 319 µM)	MFC/ MIC ratio C. albicans (C. albicans [2]): 2; MIC (C. albicans [2]): 31.3 µg/mL (≈ 80 µM); MIC C. albicans (C. albicans [2]; broth dilution): 62.5 µg/mL (≈ 160 µM)
2	62.5 µg/mL (≈ 280 µM)	4	15.6 µg/mL (≈ 69.9 µM)	2	15.6 µg/mL (≈ 69.9 µM)	2	62.5 µg/mL (≈ 280 µM)	8	62.5 µg/mL (≈ 280 µM)	Cc1c(C(N)=S)c(N)n(N)c(=O)c1C#N [Compound 4a, 1,2-diamino-5-cyano-4-methyl-6-oxo-1,6-dihydropyridine-3-carbothioamide]	125 µg/mL (≈ 560 µM)	62.5 µg/mL (≈ 280 µM)	31.3 µg/mL (≈ 140 µM)	125 µg/mL (≈ 560 µM)	500 µg/mL (≈ 2240 µM)	62.5 µg/mL (≈ 280 µM)	MIC (C. albicans [2]): 31.3 µg/mL (≈ 140 µM)
